Data on 22 compounds can be found in patent publication US10028961B2, “Therapeutically active compounds and their methods of use” (AGIOS PHARMACEUTICALS, INC., priority 2013, dated 2018).

Where two headings read alike, the source gives them in different places.

The test system of assay [1] is Neurosphere cells (TS603). In words: Cellular assay for IDH1m R132H inhibitors, 2-HG by LC-MS in neurosphere cells (TS603). It counts as cell-based. The note with it: 2-HG in media at 48 hours. The method, boiled down:
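TS603 neurosphere cells in NeuroCult medium were dosed with compound (0.25% DMSO final) at 37 C, 5% CO2. After 48 hours, medium 2-HG was measured by LC-MS. At 72 hours, viability was read by CellTiter-Glo luminescence.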

For assay [2], the target named is IDH1 wt/IDH1 R132H heterodimer (Homo sapiens (Human), UniProt O75874, R132H). Kind of assay: In vitro assay for IDH1m R132H inhibitors, IDH1 wt/IDH1 R132H heterodimer, NADPH depletion (diaphorase/resazurin). The class given is biochemical. Summed up: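 Read-out is NADPH left after α-KG reduction to 2-HG, measured via resorufin fluorescence after 5 min diaphorase/resazurin step at 25° C. Enzyme is sf9-expressed IDH1wt-his/IDH1R132H-flag heterodimer, pre-incubated 1 hr at room temperature with compound and cofactor. IC50s from DMSO stocks diluted 1:50.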

The next assay has as its target IDH2 R140Q (Homo sapiens (Human), UniProt P48735, R140Q). Kind of assay: In vitro assay for IDH2m R140Q inhibitors, cofactor depletion assay. It counts as biochemical. Conditions: IDH2 R140Q enzyme. The method, boiled down:
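Remaining cofactor measured fluorimetrically: diaphorase/resazurin Stop Mix […], halting the reaction. Before that, mutant enzyme and compound sat 1 h at RT, then substrate mix (4 μM NADPH, 1.6 mM α-KG) was added for 16 h at RT.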

The target of assay [3] is IDH1-R132H homodimer enzyme (Homo sapiens (Human), UniProt O75874, R132H). Kind of assay: In vitro assay IDH1-R132H homodimer, NADPH depletion assay with NADPH/NADP preincubation. The class given is biochemical. Conditions: 5 μM NADPH and 37.5 μM NADP. The method, then:
The following describes the experimental procedures that can be used to obtain data on columns 3 and 5 of Table 5.
A test compound is prepared as 10 mM stock in DMSO and diluted to 50× final concentration in DMSO, for a 50 μl reaction mixture. IDH enzyme activity converting alpha-ketoglutarate to 2-hydroxyglutaric acid is measured using a NADPH depletion assay. In the assay the remaining cofactor is measured at the end of the reaction with the addition of a catalytic excess of diaphorase and resazurin, to generate a fluorescent signal in proportion to the amount of NADPH remaining. […] The reaction is started with the addition of 10 μl of Substrate Mix ([…], 5 mM alpha-ketoglutarate, in Assay Buffer) and the mixture is incubated for 60 minutes at room temperature.

A further assay deals with HT1080 cells. Kind of assay: Cellular assay for IDH1m R132C inhibitors, 2-HG by LC-MS in HT1080 cells. The note with it: Homo sapiens, HT-1080. The class given is cell-based. On the procedure: The following describes the experimental procedures that can be used to obtain data on column 5 of Table 4.
Cells (HT1080 or U87MG) are grown in T125 flasks in DMEM containing 10% FBS, 1× penicillin/streptomycin and 500 ug/mL G418 (present in U87MG cells only). They are harvested by trypsin and seeded into 96 well white bottom plates at a density of 5000 cell/well in 100 ul/well in DMEM with 10% FBS. No cells are placed in columns 1 and 12. Cells are incubated overnight at 37° C. in 5% CO2. The next day test compounds are made up at 2× the final concentration and 100 ul are added to each cell well. The final concentration of DMSO is 0.2% and the DMSO control wells are plated in row G. The plates are then placed in the incubator for 48 hours. At 48 hours, 100 ul of media is removed from each well and analyzed by LC-MS for 2-HG concentrations. The cell plate is placed back in the incubator for another 24 hours. At 72 hours post compound addition, 10 mL/plate of Promega Cell Titer Glo reagent is thawed and mixed. The cell plate is removed from the incubator and allowed to equilibrate to room temperature. Then 100 ul of Promega Cell Titer Glo reagent is added to each well of media. The cell plate is then placed on an orbital shaker for 10 minutes and then allowed to sit at room temperature for 20 minutes. The plate is then read for luminescence with an integration time of 500 ms.
HT1080 cells are maintained in RPMI containing 10% FBS, 1× penicillin/streptomycin. […] The next day compounds are prepared in 100% DMSO and then diluted in media for a final concentration of 0.2% DMSO. Media is removed from the cell plates and 200 μL of the compound dilutions are added to each well. […] The cell plates are then allowed to incubate another 24 hours.

Assay [4] concerns U87MG pLVX-IDH2 R140Q-neo cells. In words: U87MG pLVX-IDH2 R140Q-neo cell based assay, 2-HG by LC-MS. Conditions: Homo sapiens, U-87 MG.
Where [5] appears, read: IDH1 wt/R132H heterodimer, NADPH/NADP, not saturated, read-out: IDH1 wt/R132H NADPH/NADP IC50 not saturated.
Setting [6] is: IDH1 wt/IDH1 R132H heterodimer, 300 μM NADP (saturated), read-out: IDH1 wt/R132H NADPH/NADP IC50 saturated.

IDH2 R140Q, sequence (P48735 40-452 R140Q): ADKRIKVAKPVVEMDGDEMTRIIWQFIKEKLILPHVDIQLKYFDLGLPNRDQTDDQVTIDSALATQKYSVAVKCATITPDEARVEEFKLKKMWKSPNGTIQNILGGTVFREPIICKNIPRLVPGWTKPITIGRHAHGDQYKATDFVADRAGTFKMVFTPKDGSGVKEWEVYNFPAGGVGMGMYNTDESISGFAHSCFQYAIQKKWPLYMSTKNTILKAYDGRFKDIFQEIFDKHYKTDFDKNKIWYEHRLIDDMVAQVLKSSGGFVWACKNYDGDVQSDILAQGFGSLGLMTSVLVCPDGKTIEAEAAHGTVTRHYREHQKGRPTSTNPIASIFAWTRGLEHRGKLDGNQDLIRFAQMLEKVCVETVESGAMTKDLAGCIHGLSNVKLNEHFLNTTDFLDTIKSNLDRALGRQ
IDH1 wt/IDH1 R132H heterodimer, sequence (O75874 whole entry R132H): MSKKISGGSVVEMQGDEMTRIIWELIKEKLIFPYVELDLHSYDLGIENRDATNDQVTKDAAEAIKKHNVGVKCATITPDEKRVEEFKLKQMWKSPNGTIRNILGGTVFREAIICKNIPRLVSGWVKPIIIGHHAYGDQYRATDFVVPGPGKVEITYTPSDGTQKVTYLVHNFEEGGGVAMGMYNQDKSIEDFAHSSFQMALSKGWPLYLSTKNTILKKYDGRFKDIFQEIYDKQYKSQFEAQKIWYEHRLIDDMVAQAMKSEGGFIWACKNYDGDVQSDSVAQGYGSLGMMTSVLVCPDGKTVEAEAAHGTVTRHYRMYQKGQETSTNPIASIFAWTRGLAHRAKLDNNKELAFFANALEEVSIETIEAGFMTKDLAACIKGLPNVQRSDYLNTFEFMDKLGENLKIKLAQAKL
IDH1 wt/IDH1 R132H heterodimer, sequence (O75874 whole entry, stated change not applied): as the sequence (O75874 whole entry R132H) above, with H132R counted along it
IDH1-R132H homodimer enzyme, sequence (O75874 whole entry R132H): as the sequence (O75874 whole entry R132H) above

For `C[C@@H](Nc1nc(NC(C(F)(F)F)C(F)(F)F)nc(-c2cccc(Cl)n2)n1)C(F)(F)F` [Compound 100], the IC50 (in assay [1]; in assay [2] (setting [5]); on IDH2 R140Q; in assay [3]; with HT1080 cells) was less than 50 nM each time.

Consider `FC1(F)CC[C@@H](Nc2nc(N[C@H]3CCC(F)(F)C3)nc(-c3cccc(C(F)(F)F)n3)n2)C1` [Compound 102], for which the IC50 (in assay [1]; in assay [2] (setting [5]); in assay [4]; against IDH2 R140Q; in assay [3]; in the assay with HT1080 cells) was less than 50 nM in each case.

For the compound `CCC(Nc1nc(NC(CC)C(F)(F)F)nc(-c2cccc(Cl)n2)n1)C(F)(F)F` (stereo not shown) [Compound 103], the IC50 (in assay [1]; in assay [2] (setting [5]); in assay [4]; against IDH2 R140Q; in assay [3]; with HT1080 cells) was less than 50 nM throughout.

`CC[C@@H](Nc1nc(N[C@H](CC)C(F)(F)F)nc(-c2cccc(Cl)n2)n1)C(F)(F)F` [Compound 104]: the IC50 (in assay [2] (setting [5]); in assay [4]; against IDH2 R140Q; in assay [3]; in the assay on HT1080 cells) was less than 50 nM each time.

On to `CC(Nc1nc(Nc2cc(F)cc(F)c2)nc(-n2ccc(C(F)(F)F)n2)n1)C(F)(F)F` (stereo not shown) [Compound 107], for which the IC50 was less than 50 nM in assay [1]; less than 50 nM in assay [2] (setting [5]); less than 50 nM in assay [4]; less than 50 nM on IDH2 R140Q; less than 50 nM in assay [3]; 100 to 1000 nM in the assay on HT1080 cells.

For `Fc1cc(F)cc(Nc2nc(NC3CCC(F)(F)C3)nc(-n3ccc(C(F)(F)F)n3)n2)c1` (stereo not shown) [Compound 108], the IC50 in assay [1] was less than 50 nM; in assay [2] (setting [5]), less than 50 nM; in assay [4] it was less than 50 nM; on IDH2 R140Q, less than 50 nM; in assay [3], less than 50 nM; in the assay on HT1080 cells it was 50 to 100 nM.

Consider `FC1(F)CC[C@@H](Nc2nc(N[C@@H]3CCC(F)(F)C3)nc(-c3cccc(C(F)(F)F)n3)n2)C1` [Compound 111], for which the IC50 (in assay [1]; in assay [2] (setting [5]); in assay [4]; at IDH2 R140Q; in assay [3]; in the assay on HT1080 cells) was less than 50 nM in each case.

Take `N#Cc1cc(F)cc(Nc2nc(NC3CCC(F)(F)C3)nc(-n3ccc(C(F)(F)F)n3)n2)c1` (stereo not shown) [Compound 112]: the IC50 in assay [1] is less than 50 nM; in assay [2] (setting [5]), less than 50 nM; in assay [4], less than 50 nM; on IDH2 R140Q it was less than 50 nM; in assay [3] it was less than 50 nM; in the assay on HT1080 cells, 100 to 1000 nM.

With `FC1(F)CC[C@@H](Nc2nc(Nc3ccnc(C(F)(F)F)c3)nc(-c3cncc(C(F)(F)F)n3)n2)C1` [Compound 116], the IC50 (in assay [1]; in assay [2] (setting [6]); in assay [2] (setting [5]); in assay [4]; at IDH2 R140Q; in assay [3]) was less than 50 nM each time. The compound further registered an IC50 with HT1080 cells of 100 to 1000 nM.

As for `FC1(F)CC[C@H](Nc2nc(N[C@H]3CCC(F)(F)C3)nc(-c3cccc(C(F)(F)F)n3)n2)C1` [Compound 118], the IC50 (in assay [1]; in assay [2] (setting [5]); in assay [4]; against IDH2 R140Q; in assay [3]; with HT1080 cells) was less than 50 nM each time.

For `CC(Nc1nc(Nc2cc(F)cc(C#N)c2)nc(-n2ccc(C(F)(F)F)n2)n1)C(F)(F)F` (stereo not shown) [Compound 119], the IC50 in assay [1] was less than 50 nM; in assay [2] (setting [5]), less than 50 nM; in assay [4] it was less than 50 nM; on IDH2 R140Q, less than 50 nM; in assay [3], less than 50 nM; with HT1080 cells it was 50 to 100 nM.

For `N#Cc1cc(F)cc(Nc2nc(NC3CC(F)(F)C3)nc(-c3nc(C(F)(F)F)cs3)n2)c1` [Compound 122], the IC50 was less than 50 nM in assay [1]; less than 50 nM in assay [2] (setting [5]); less than 50 nM in assay [4]; less than 50 nM against IDH2 R140Q; less than 50 nM in assay [3]; 50 to 100 nM in the assay with HT1080 cells.

For `N#Cc1cc(F)cc(Nc2nc(NC3CCC(F)(F)C3)nc(-c3nc(C(F)(F)F)cs3)n2)c1` (stereo not shown) [Compound 132], the IC50 was less than 50 nM in assay [1]; less than 50 nM in assay [2] (setting [5]); less than 50 nM in assay [4]; less than 50 nM against IDH2 R140Q; less than 50 nM in assay [3]; 100 to 1000 nM in the assay on HT1080 cells.

As for `N#Cc1cc(F)cc(Nc2nc(NC3CC(F)(F)C3)nc(-n3ccc(C(F)(F)F)n3)n2)c1` [Compound 140], the IC50 in assay [1] was less than 50 nM; in assay [2] (setting [5]), less than 50 nM; in assay [4], less than 50 nM; at IDH2 R140Q it was less than 50 nM; in assay [3], less than 50 nM; in the assay on HT1080 cells, 100 to 1000 nM.

Consider `Nc1ccc(F)c(-c2nc(Nc3cc(F)cc(F)c3)nc(NC3CCC(F)(F)C3)n2)n1` (stereo not shown) [Compound 153], for which the IC50 is less than 50 nM in assay [2] (setting [5]); less than 50 nM in assay [4]; less than 50 nM on IDH2 R140Q; less than 50 nM in assay [3]; 50 to 100 nM in the assay on HT1080 cells.

For the compound `CC(C)(O)CNc1nc(Nc2cc(F)cc(Cl)c2)nc(-c2cccc(C(C)(F)F)n2)n1` [Compound 236], the IC50 in assay [2] (setting [5]) is less than 50 nM; in assay [4] it was less than 50 nM; against IDH2 R140Q, less than 50 nM; in assay [3], 100 to 1000 nM; in the assay on HT1080 cells it was more than 1000 nM.

For the compound `FC1(F)CCC(Nc2nc(NC3CN(c4ccccn4)C3)nc(-c3cccc(C(F)(F)F)n3)n2)C1` (stereo not shown) [Compound 238], the IC50 in assay [1] is less than 50 nM; in assay [2] (setting [5]), less than 50 nM; in assay [3], 100 to 1000 nM; with HT1080 cells, 100 to 1000 nM.

For the compound `O=C1C[C@H](Nc2nc(NC3CCC(F)(F)C3)nc(-c3cccc(C(F)(F)F)n3)n2)CN1c1ccccn1` (stereo partly shown) [Compound 239], the IC50 in assay [1] is less than 50 nM; in assay [2] (setting [5]) it was less than 50 nM; in assay [3], 100 to 1000 nM; in the assay with HT1080 cells, 100 to 1000 nM.

Regarding `FC1(F)CCC(Nc2nc(NC3CN(c4cccnc4)C3)nc(-c3cccc(C(F)(F)F)n3)n2)C1` (stereo not shown) [Compound 243], the IC50 in assay [1] is less than 50 nM; in assay [2] (setting [5]), 50 to 100 nM; in assay [3], more than 1000 nM; in the assay on HT1080 cells it was 100 to 1000 nM.

On to `CC(C)(O)CNc1nc(NC2CCC(F)(F)C2)nc(-c2cccc(C(F)(F)F)n2)n1` (stereo not shown) [Compound 264], for which the IC50 in assay [1] lay in the range of 50 to 100 nM; in assay [2] (setting [5]), 100 to 1000 nM; in assay [3], 100 to 1000 nM; in the assay with HT1080 cells, 100 to 1000 nM.

Take `CC(C)(O)CNc1nc(NC2CCC(F)(F)CC2)nc(-c2cccc(C(F)(F)F)n2)n1` [Compound 287]: the IC50 is 100 to 1000 nM in assay [2] (setting [5]); 100 to 1000 nM in assay [4]; 100 to 1000 nM on IDH2 R140Q; more than 1000 nM in assay [3]; more than 1000 nM with HT1080 cells.

For the compound `Fc1cc(F)cc(Nc2nc(NC3CC(F)(F)C3)nc(-c3nc(C(F)(F)F)cs3)n2)c1` [Compound 413], the IC50 is less than 50 nM in assay [2] (setting [6]), less than 50 nM in assay [4], less than 50 nM in assay [3] and 100 to 1000 nM with HT1080 cells.
